One test has as its system PCSK9 secretion. Nature of the test: SILAC mass spectrometry of HepG2 secreted proteins: PCSK9. Format: cell-based, human. The note with it: HepG2, Mdivi-1 50 μM, 24 hours, vs vehicle. How it is done:
To assess DRP1 involvement in protein secretion, secretome changes were quantified using stable isotope labeling by amino acids in cell culture (SILAC).
HepG2 cells were cultured on 100 mm dishes at a confluency of ˜60-70%. […] Media was prepared with DMEM (no lysine, no arginine; A14431-01, Thermo Fisher Scientific) to which L-glutamine (2 mM, Lonza, Walkersville, Md.), L-arginine HCl (0.17 mM; Sigma), either light L-lysine HCl (0.339 mM; Sigma) or heavy L-lysine 2HCl (0.339 mM; Cambridge Isotopes, Tewksbury, Mass.), 10% dialyzed FBS (Thermo Fisher Scientific), 1% pen/strep was added. Media was changed every two days, and cells were split as required. […]
The peptide sample was diluted [1/10-fold] and analyzed with the high resolution/accuracy Q Exactive™ mass spectrometer fronted with a Nanospray™ FLEX ion source, and coupled to an Easy-nLC1000 HPLC pump (Thermo Fisher Scientific). […] The peptide false discovery rate (FDR) was calculated using Percolator™ provided by Proteome Discoverer. […] Quantification of SILAC peak pairs was also done in Proteome Discoverer™ using up to the top three most abundant peptides. […] Significant changes were determined as proteins with an average value (ratio of Mdivi-1 treated/vehicle treated peak intensity) plus two standard deviations being less than the control value (vehicle treated/vehicle treated peak intensity=1). […]

Another test relates to p62. The test is described as follows: Western blot, HepG2 p62 and p (S349) p62. Conditions: HepG2, 24 hours; Mdivi-1 50 μmol/L, MG132 0.3 μmol/L. Format: cell-based, human. (A western blot detects proteins with antibodies after separation by electrophoresis.)

For the compound `COc1cc(-n2c(S)nc3ccccc3c2=O)c(Cl)cc1Cl` [Mdivi-1, 3-(2,4-Dichloro-5-methoxyphenyl)-2,3-dihydro-2-thioxo-4(1H)-quinazolinone], in the test on PCSK9 secretion, the “PCSK9 secretion reduction (SILAC)” value is recorded as −74%. In addition, in the test on p62, the p62 abundance entry is given as “strongly increased” and the p62 phosphorylation result is recorded as “increased”.

Source of the values: patent publication US10960020B2, “Modulation of PCSK9 and LDLR through DRP1 inhibition” (THE BRIGHAM AND WOMEN'S HOSPITAL, INC., priority 2016, dated 2021).
